Experimental data from patent publication US8802597B2, “Herbicidal pyrimidines” (E I du Pont de Nemours and Company, priority 2003, dated 2014).
Where two headings read alike, the source gives them in different places.

Tests used:
Format in all cases: in vivo
[1] = tested on: barnyardgrass (Echinochloa crus-galli); test: Test A pre/postemergence; details: Echinochloa crus-galli, 240 h, read-out: Plant response rating, Barnyardgrass; for pest or weed control at 125 g/ha: 125 g ai/ha; for pest or weed control at 500 g/ha: 500 g ai/ha
In short: (§1)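 Visual injury scored 0–100 (0 = no effect, 100 = complete control) against untreated controls after about ten days in the greenhouse. Compounds, formulated in non-phytotoxic solvent plus surfactant, were applied preemergence as a directed soil spray and postemergence at the 1- to 2-leaf stage (2–10 cm).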

[2] = tested on: redroot pigweed (Amaranthus retroflexus); test: Test A pre/postemergence; details: Amaranthus retroflexus, 240 h, read-out: Plant response rating, Pigweed; for pest or weed control at 125 g/ha: 125 g ai/ha; for pest or weed control at 500 g/ha: 500 g ai/ha
In short: as §1

[3] = tested on: morningglory (Ipomoea spp.); test: Test A pre/postemergence; details: Ipomoea, 240 h, read-out: Plant response rating, Morningglory; for pest or weed control at 125 g/ha: 125 g ai/ha; for pest or weed control at 500 g/ha: 500 g ai/ha
In short: as §1

[4] = tested on: crabgrass (Digitaria sanguinalis); test: Test A pre/postemergence; details: Digitaria sanguinalis, 240 h, read-out: Plant response rating, Crabgrass; for pest or weed control at 125 g/ha: 125 g ai/ha; for pest or weed control at 500 g/ha: 500 g ai/ha
In short: as §1

[5] = tested on: giant foxtail (Setaria faberi); test: Test A pre/postemergence; details: Setaria faberi, 240 h, read-out: Plant response rating, Foxtail, Giant; for pest or weed control at 125 g/ha: 125 g ai/ha; for pest or weed control at 500 g/ha: 500 g ai/ha
In short: as §1

[6] = tested on: velvetleaf (Abutilon theophrasti); test: Test A pre/postemergence; details: Abutilon theophrasti, 240 h, read-out: Plant response rating, Velvetleaf; for pest or weed control at 125 g/ha: 125 g ai/ha; for pest or weed control at 500 g/ha: 500 g ai/ha
In short: as §1

[7] = tested on: chickweed (Stellaria media); test: Test C postemergence; details: Stellaria media, post-emergence
In short: (§2)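 Visual injury ratings, 0 (no effect) to 100 (complete control), made 12 to 14 days after treatment by comparison with untreated controls. Greenhouse plants received test chemical in a surfactant-containing non-phytotoxic solvent, either preemergence on planted seeds or postemergence at the 1- to 4-leaf stage.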

soybean (Glycine max) = test: Test C pre/postemergence; details: Glycine max; for plant injury at 8 g/ha: 8 g ai/ha; for plant injury at 16 g/ha: 16 g ai/ha; for plant injury at 31 g/ha: 31 g ai/ha; for plant injury at 62 g/ha: 62 g ai/ha
In short: as §2

[8] = tested on: goosegrass (Eleusine indica); test: Test C pre/postemergence; details: Eleusine indica; for pest or weed control at 8 g/ha: 8 g ai/ha; for pest or weed control at 16 g/ha: 16 g ai/ha; for pest or weed control at 31 g/ha: 31 g ai/ha; for pest or weed control at 62 g/ha: 62 g ai/ha
In short: as §2

[9] = tested on: lambsquarters (Chenopodium album); test: Test C pre/postemergence; details: Chenopodium album; for pest or weed control at 8 g/ha: 8 g ai/ha; for pest or weed control at 16 g/ha: 16 g ai/ha; for pest or weed control at 31 g/ha: 31 g ai/ha; for pest or weed control at 62 g/ha: 62 g ai/ha
In short: as §2

corn (Zea mays) = test: Test C pre/postemergence; details: Zea mays; for Corn plant response rating (crop injury, 0 = no effect, 100 = complete kill) at 8 g/ha: 8 g ai/ha; for Corn plant response rating (crop injury, 0 = no effect, 100 = complete kill) at 16 g/ha: 16 g ai/ha; for Corn plant response rating (crop injury, 0 = no effect, 100 = complete kill) at 62 g/ha: 62 g ai/ha
In short: as §2

[10] = post-emergence, Postemergence, 0 to 100 scale (0 no effect, 100 complete control)
[11] = pre-emergence, Preemergence, 0 to 100 scale where 0 is no effect and 100 is complete control, approximately ten days
[12] = post-emergence, Postemergence, read-out: Plant response rating (scale of 0 to 100), Soybean
[13] = pre-emergence, Preemergence, scale 0 to 100, 0 no effect, 100 complete control, read-out: Plant response rating, Soybean
[14] = post-emergence, Postemergence, read-out: Plant response rating (scale of 0 to 100), Goosegrass
[15] = pre-emergence, Preemergence, scale 0 to 100, 0 no effect, 100 complete control, read-out: Plant response rating, Goosegrass
[16] = post-emergence, Postemergence, read-out: Plant response rating (scale of 0 to 100), Lambsquarters
[17] = pre-emergence, Preemergence, scale 0 to 100, 0 no effect, 100 complete control, read-out: Plant response rating, Lambsquarters
[18] = post-emergence, Postemergence, read-out: Plant response rating (scale of 0 to 100), Corn
[19] = pre-emergence, Preemergence, scale 0 to 100, 0 no effect, 100 complete control, read-out: Plant response rating, Corn

Structure (SMILES): Nc1nc(-c2ccc(Br)cc2)nc(C(=O)O)c1Cl [Compound 95, 6-amino-2-(4-bromophenyl)-5-chloro-4-pyrimidinecarboxylic acid]
- pest or weed control at 125 g/ha [1, 10]: 75%
- pest or weed control at 500 g/ha [1, 10]: 90%
- pest or weed control at 125 g/ha [1, 11]: 20%
- pest or weed control at 500 g/ha [1, 11]: 80%
- pest or weed control at 125 g/ha [2, 10]: 85%
- pest or weed control at 500 g/ha [2, 10]: 95%
- pest or weed control at 125 g/ha [2, 11]: 95%
- pest or weed control at 500 g/ha [2, 11]: 100%
- pest or weed control at 125 g/ha [3, 10]: 75%
- pest or weed control at 500 g/ha [3, 10]: 80%
- pest or weed control at 125 g/ha [3, 11]: 80%
- pest or weed control at 500 g/ha [3, 11]: 85%
- pest or weed control at 125 g/ha [4, 10]: 70%
- pest or weed control at 500 g/ha [4, 10]: 80%
- pest or weed control at 125 g/ha [4, 11]: 65%
- pest or weed control at 500 g/ha [4, 11]: 85%
- pest or weed control at 125 g/ha [5, 10]: 85%
- pest or weed control at 500 g/ha [5, 10]: 85%
- pest or weed control at 125 g/ha [5, 11]: 65%
- pest or weed control at 500 g/ha [5, 11]: 90%
- pest or weed control at 125 g/ha [6, 10]: 90%
- pest or weed control at 500 g/ha [6, 10]: 95%
- pest or weed control at 125 g/ha [6, 11]: 55%
- pest or weed control at 500 g/ha [6, 11]: 95%
- pest or weed control at 8 g/ha ([7]; 8 g ai/ha, scale 0 to 100, read-out: Plant response rating, Chickweed): 95%
- pest or weed control at 62 g/ha ([7]; 62 g ai/ha, read-out: Plant response rating (scale of 0 to 100), Chickweed): 95%
- plant injury at 8 g/ha (soybean (Glycine max); post-emergence, Postemergence, scale 0 to 100, read-out: Plant response rating, Soybean): 100%
- plant injury at 16 g/ha (soybean (Glycine max); [12]): 100%
- plant injury at 31 g/ha (soybean (Glycine max); [12]): 100%
- plant injury at 62 g/ha (soybean (Glycine max); [12]): 100%
- plant injury at 8 g/ha (soybean (Glycine max); pre-emergence, Preemergence, scale 0 to 100 (0 no effect, 100 complete control), read-out: Plant response rating, Soybean): 90%
- plant injury at 16 g/ha (soybean (Glycine max); [13]): 90%
- plant injury at 31 g/ha (soybean (Glycine max); [13]): 100%
- plant injury at 62 g/ha (soybean (Glycine max); [13]): 100%
- pest or weed control at 8 g/ha ([8]; post-emergence, Postemergence, scale 0 to 100, read-out: Plant response rating, Goosegrass): 50%
- pest or weed control at 16 g/ha [8, 14]: 65%
- pest or weed control at 31 g/ha [8, 14]: 75%
- pest or weed control at 62 g/ha [8, 14]: 80%
- pest or weed control at 8 g/ha ([8]; pre-emergence, Preemergence, scale 0 to 100 (0 no effect, 100 complete control), read-out: Plant response rating, Goosegrass): 0%
- pest or weed control at 16 g/ha [8, 15]: 0%
- pest or weed control at 31 g/ha [8, 15]: 10%
- pest or weed control at 62 g/ha [8, 15]: 40%
- pest or weed control at 8 g/ha ([9]; post-emergence, Postemergence, scale 0 to 100, read-out: Plant response rating, Lambsquarters): 75%
- pest or weed control at 16 g/ha [9, 16]: 100%
- pest or weed control at 31 g/ha [9, 16]: 100%
- pest or weed control at 62 g/ha [9, 16]: 100%
- pest or weed control at 8 g/ha ([9]; pre-emergence, Preemergence, scale 0 to 100 (0 no effect, 100 complete control), read-out: Plant response rating, Lambsquarters): 0%
- pest or weed control at 16 g/ha [9, 17]: 100%
- pest or weed control at 31 g/ha [9, 17]: 100%
- pest or weed control at 62 g/ha [9, 17]: 100%
- Corn plant response rating (crop injury, 0 = no effect, 100 = complete kill) at 8 g/ha (corn (Zea mays); post-emergence, Postemergence, scale 0 to 100): 20%
- Corn plant response rating (crop injury, 0 = no effect, 100 = complete kill) at 16 g/ha (corn (Zea mays); [18]): 20%
- Corn plant response rating (crop injury, 0 = no effect, 100 = complete kill) at 62 g/ha (corn (Zea mays); [18]): 35%
- Corn plant response rating (crop injury, 0 = no effect, 100 = complete kill) at 8 g/ha (corn (Zea mays); pre-emergence, Preemergence, scale 0 to 100 (0 no effect, 100 complete control)): 0%
- Corn plant response rating (crop injury, 0 = no effect, 100 = complete kill) at 16 g/ha (corn (Zea mays); [19]): 0%
- Corn plant response rating (crop injury, 0 = no effect, 100 = complete kill) at 31 g/ha (corn (Zea mays); pre-emergence, Preemergence, 31 g ai/ha, scale 0 to 100, 0 no effect, 100 complete control, read-out: Plant response rating, Corn): 0%
- Corn plant response rating (crop injury, 0 = no effect, 100 = complete kill) at 62 g/ha (corn (Zea mays); [19]): 5%
